From patent US20240035071A1, “CATALYTIC DE-CROSSLINKING OF SAMPLES FOR IN SITU ANALYSIS” (10X Genomics, Inc., priority 2022, published 2024)

Experiments:
FFPE mouse brain tissues = assay: RCP signal detection in de-crosslinked FFPE mouse brain tissues; settings: compared to Compound 1 in citrate buffer (pH 6.8)
Protocol: FFPE mouse brain tissues were processed essentially as described in Example 1, and gene expression analysis for RNA transcripts and protein analysis (e.g., anti-GFAP antibody staining) in the dentate gyrus (DG) region were performed essentially as described in Examples 2 and 3. Four de-crosslinking agent and buffer combinations were tested: Compound 1 in citrate buffer (pH 6.8), Compound 15 in citrate buffer (pH 6.8), Compound 18 (trans-4-hydroxy-L-proline) in citrate buffer (pH 6.8), and Compound 1 in PBS (pH 7.4).

[1] = test system: normal lung tissue samples; assay: RCP detection in catalytically de-crosslinked FFPE normal lung tissue samples; design: species or system human; settings: compared to control samples de-crosslinked in a steamer (data not shown)
Protocol: (§1) FFPE human breast cancer, melanoma, lymph node, lung cancer, and normal lung tissues were processed essentially as described in Example 1. Specifically, 2-amino-5-methylbenzoic acid (Compound 1) or (4-aminopyridin-3-yl)phosphonic acid (Compound 8) was used as the de-crosslinking agent and applied to de-paraffinized and re-hydrated samples in a buffer solution, such as a solution of citrate buffer at pH 6 or a solution of TE buffer at pH 9. The samples were incubated under various de-crosslinking temperatures (e.g., 80° C. or 95° C.) for 30 minutes, using 0 mM or 200 mM of Compound 1 or Compound 8. Analytes in the de-crosslinked tissue samples were detected essentially as described in Example 2.
The RCPs were detected using detectable probes targeting barcode sequences for MALAT-I/ACTB or GAPDH/RPLPO or targeting the common anchor region in the RCPs (representative images in FIG. 8, left panel).

[2] = test system: FFPE human breast cancer tissues; assay: RCP detection (RCP count/μm^2 nuclei area) in catalytically de-crosslinked FFPE human breast cancer samples; settings: for detection of RCPs (detected object counts per nucleic area, RCP count/μm^2 nuclei area): 100 mM, 80° C., 30 minutes, compared to control de-crosslinked in a steamer for 30 minutes using citrate buffer (pH 6)
Text: A formalin-fixed, paraffin-embedded (FFPE) tissue sample was cut into thin tissue sections using a pre-warmed microtome. The sections were placed on slides and dried at a temperature higher than room temperature, followed by overnight drying at room temperature in a desiccator. Images of the sections were taken for record, e.g., in order to monitor tissue morphology and/or detachment during sample processing. In some instances, images of the sections taken after de-crosslinking were compared to those before de-crosslinking.
The slides were baked uncovered in an oven, and then calibrated to room temperature. The sections were de-paraffinized and dehydrated using xylene and absolute ethanol. The sections were then re-hydrated using an ethanol series (e.g., 96% ethanol followed by 70% ethanol), and then re-hydrated in nuclease free water (e.g., DEPC water). The slides were gently dried to allow application of a cassette to seal around the tissue sections, without letting the tissue section to dry completely.
The sections were then de-crosslinked using a catalyst disclosed herein in a buffer solution. In some instances, the a de-crosslinking buffer can function as an antigen retriever buffer. Then the sections were washed three times with RNase-free phosphate-buffered saline (PBS) or PBST (phosphate-buffered saline solution with a low-concentration detergent solution, e.g., 0.05% to 0.1% Tween™ 20) prior to application of labelling agents (e.g., detectable nucleic acid probes for nucleic acids and/or labelled antibodies for proteins) to the tissue samples.
FFPE human breast cancer tissues were sectioned to […] thickness, transferred to Superfrost© Plus slides, and processed essentially as described in Example 1. Specifically, 2-amino-5-methylbenzoic acid (Compound 1) was used as the de-crosslinking agent and applied to de-paraffinized and re-hydrated samples in a buffer solution, such as a solution of citrate buffer at pH 6 or a solution of Tris-EDTA (TE) buffer at pH 9. […]

[3] = test system: FFPE human breast cancer tissues; assay: anti-panCK antibody staining in de-crosslinked FFPE human breast cancer samples; settings: various concentrations in citrate or TE buffer; compared to control de-crosslinked in a steamer
Protocol: FFPE human breast cancer tissues were sectioned to […] thickness, transferred to Superfrost© Plus slides, and processed essentially as described in Example 1. Specifically, 2-amino-5-methylbenzoic acid (Compound 1) was used as the de-crosslinking agent and applied to de-paraffinized and re-hydrated samples in a buffer solution, such as a solution of citrate buffer at pH 6 or a solution of Tris-EDTA (TE) buffer at pH 9. The samples were incubated under various de-crosslinking temperatures (e.g., 80° C. or 95° C.) for various time periods (e.g., 15 minutes or 30 minutes). Different concentrations of the de-crosslinking agent in the buffer solutions were tested, including 0 mM, 50 mM, 100 mM, 200 mM, and 400 mM of Compound 1.
The samples were washed (e.g., in PBST) and detectable probes in a hybridization buffer (e.g., containing SSC and formamide) were hybridized to RCA products (RCPs) in the sample. The detectable probes included probes that hybridize to sequences (e.g., barcode sequences or anchor sequences) in the RCPs and comprise overhangs for hybridization of fluorescently labelled detection oligonucleotides. The samples were imaged in fluorescent microscope with 40× objective and the signals associated with the RCPs were quantified using a software. […]

[4] = test system: FFPE human breast cancer samples; assay: tissue morphology by H&E staining after de-crosslinking workflow with additives; settings: post workflow and detection, confirmed by H&E staining
Protocol: (§2) FFPE human breast cancer samples sectioned to […] thickness were processed essentially as described in […]. Specifically, 2-amino-5-methylbenzoic acid (Compound 1) was used as the de-crosslinking agent and applied to de-paraffinized and re-hydrated samples in a buffer solution with various additives, such as 0.05% SDS, 0.2% SDS, 0.5% SDS, 0.05 M urea, 0.5 M urea, 0.2 μg/ml proteinase K, 0.5 μg/ml proteinase K, 1 μg/ml proteinase K, and combinations thereof. The samples were incubated at 80° C. for 30 minutes, using 150 mM of Compound 1. Analytes in the de-crosslinked tissue samples were detected essentially as described in Example 2 using circularizable probes (e.g., padlock probes) targeting ACTB, GAPDH, MALAT-1, RPLPO, Eef2, Ppib, POLR2A RNA transcripts. Detectable probes were hybridized to sequences (e.g., barcode sequences or anchor sequences) in the RCPs and comprised overhangs for hybridization of fluorescently labelled detection oligonucleotides. The samples were imaged in fluorescent microscope with 40× objective and the signals associated with the RCPs were quantified using a software.
(§3) FIG. 10A-10C show the detected object count per nucleic area (RCP count/μm^2 nuclei area) in cells of the human breast cancer samples treated with Compound 1 for de-crosslinking in the presence or absence of additives SDS, urea, and/or proteinase K as indicated. […]

[5] = test system: FFPE human breast cancer, melanoma, lymph node, lung cancer, and normal lung tissues; assay: anti-Vimentin antibody staining in de-crosslinked FFPE samples from various tissues; settings: across the tissue types, compared to de-crosslinking in a steamer and heating at 95° C. in TE buffer
Text: (§4) The samples were washed (e.g., in PBST) and detectable probes in a hybridization buffer (e.g., containing SSC and formamide) were hybridized to RCA products (RCPs) in the sample. The detectable probes included probes that hybridize to sequences (e.g., barcode sequences or anchor sequences) in the RCPs and comprise overhangs for hybridization of fluorescently labelled detection oligonucleotides. The samples were imaged in fluorescent microscope with 40× objective and the signals associated with the RCPs were quantified using a software. In some instances, the samples were also stained with DAPI and/or labelled antibodies, e.g., fluorescently labelled anti-Vimentin antibody or anti-panCK antibody. In some instances, once the samples were imaged to detect signals associated with the detectable probes or labelled antibodies, the samples were stripped (e.g., using a denaturing agent) and contacted with additional detectable probes or labelled antibodies for the next imaging round.
FFPE human breast cancer, melanoma, lymph node, lung cancer, and normal lung tissues were processed essentially as described in Example 1. […] Analytes in the de-crosslinked tissue samples were detected essentially as described in Example 2.

[6] = test system: FFPE human breast cancer samples; assay: antibody staining (Pan cytokeratin, Vimentin, Ki67) in FFPE human breast cancer samples de-crosslinked with additives; settings: in the presence of urea and proteinase K
Protocol: as §2, §3

[7] = test system: FFPE human breast cancer, melanoma, lymph node, lung cancer, and normal lung tissues; assay: RCP/RNA transcript detection in de-crosslinked FFPE samples from various tissues; settings: across the tissue types; for visualization of transcripts GAPDH/RPLPO or MALAT-I/ACTB (RCPs): 0 mM or 200 mM, 30 minutes, compared to de-crosslinking in a steamer; for RNA/protein visualization: overlaid images of RNA detection and protein detection
Protocol: The de-crosslinked and washed tissue samples can be immediately used for analyte detection. In some instances, circularizable probes (e.g., padlock probes) targeting MALAT-1/ACTB (nuclear/cytoplasmic) or GAPDH/RPLPO (cytoplasmic) RNA transcripts were added in hybridization buffers (e.g., including SSC and formamide) and incubated with the samples to allow hybridization of the circularizable probes to their target nucleic acids. In addition to a target hybridization region, each circularizable probe also contained a common anchor region and a barcode region. Then, the probe hybridization mixture was removed and the samples were washed. For ligation of the circularizable probes hybridized to their target nucleic acids, a ligation reaction mix (e.g., containing a SplintR® ligase buffer, RNase inhibitor and SplintR® ligase) and a rolling circle amplification (RCA) primer were added to the samples and incubated for probe circularization and RCA primer hybridization to the probes. The samples were washed and an RCA reaction mixture (containing Phi29 reaction buffer, dNTPs, Phi29 polymerase) was added and incubated for RCA of the circularized probes.
as §4
as §1, with “The samples were incubated under various de-crosslinking temperatures (e.g., 80° C. or 95° C.) for 30 minutes, using 0 mM or 200 mM of Compound 1 or Compound 8.” left out

[8] = test system: FFPE human breast cancer samples; assay: RCP detection in FFPE human breast cancer samples de-crosslinked with additives; settings: for detection of RCPs (detected object counts per nucleic area): 150 mM, 80° C., 30 minutes, compared to no additional additives or single additives
Protocol: as §2
FIG. 10A-10C show the detected object count per nucleic area (RCP count/μm^2 nuclei area) in cells of the human breast cancer samples treated with Compound 1 for de-crosslinking in the presence or absence of additives SDS, urea, and/or proteinase K as indicated. […] In addition, it was observed antibody staining (e.g., antibody positive signal intensity for Pan cytokeratin, Vimentin, and Ki67) was compatible with the catalytic de-crosslinking conditions with Compound 1 in the presence of urea and proteinase K. Tissue morphology was also observed to be preserved post workflow and detection as confirmed by H&E staining that was performed.

Cc1ccc(N)c(C(=O)O)c1 [Compound 1, 2-amino-5-methylbenzoic acid]
signal density (detected object signal intensity above local background (mean)) (FFPE mouse brain tissues; PBS (pH 7.4)): improved signal density | RCP densities (detected object count per nucleic area, RCP count/μm^2 nuclei area) [1]: Higher RCP densities | detection of RCPs (detected object counts per nucleic area, RCP count/μm^2 nuclei area) ([2]; TE buffer (pH 9)): significantly improve the detection of RCPs | detection of RCPs (detected object counts per nucleic area, RCP count/μm^2 nuclei area) ([2]; citrate buffer (pH 6)): significantly improve the detection of RCPs | sensitivity and RCP brightness ([2]; citrate buffer, between about 100 and about 200 mM): boost sensitivity and RCP brightness | antibody staining (antibody positive signal intensity), anti-panCK [3]: may be improved | tissue morphology [4]: preserved | anti-Vimentin antibody staining [5]: enhanced anti-Vimentin antibody staining | antibody staining (antibody positive signal intensity for Pan cytokeratin, Vimentin, and Ki67) [6]: compatible | visualization of transcripts GAPDH/RPLPO or MALAT-I/ACTB (RCPs) [7]: enhanced visualization | RNA/protein visualization [7]: enhanced RNA/protein visualization | detection of RCPs (detected object counts per nucleic area) ([8]; in the presence of SDS and proteinase K): appeared to improve the detection of RCPs | detection of RCPs (detected object counts per nucleic area) ([8]; in the presence of urea and proteinase K): appeared to improve the detection of RCPs | puncta brightness and/or numbers detected ([8]; in the presence of both 0.5 M urea and 1 μg/ml proteinase K): increases in puncta brightness and/or numbers detected | puncta brightness and/or numbers detected ([8]; in the presence of both 0.5 M urea with 0.5 μg/ml Proteinase K): increases in puncta brightness and/or numbers detected

Nc1ccncc1P(=O)(O)O [Compound 8, (4-aminopyridin-3-yl)phosphonic acid]
RCP densities (detected object count per nucleic area, RCP count/μm^2 nuclei area) [1]: Higher RCP densities | anti-Vimentin antibody staining [5]: enhanced anti-Vimentin antibody staining | visualization of transcripts GAPDH/RPLPO or MALAT-I/ACTB (RCPs) [7]: enhanced visualization | RNA/protein visualization [7]: enhanced RNA/protein visualization

Nc1ccccc1P(=O)(O)O [Compound 15, (2-aminophenyl)phosphonic acid]
signal density (detected object signal intensity above local background (mean)) (FFPE mouse brain tissues; citrate buffer (pH 6.8)): improved signal density

O=C(O)[C@@H]1C[C@@H](O)CN1 [Compound 18, trans-4-hydroxy-L-proline]
signal density (detected object signal intensity above local background (mean)) (FFPE mouse brain tissues; citrate buffer (pH 6.8)): improved signal density
